According to patent US12522583B2, “Benzimidazole derivatives and aza-benzimidazole derivatives as Janus kinase 2 inhibitors and uses thereof” (Dana-Farber Cancer Institute, Inc., priority 2018, dated 2026):

Molecular target: JAK2 (Homo sapiens (Human), UniProt O60674)
Experiment: JAK2 Z-Lyte biochemical assay
Conditions: not given
Experimental: Example 3. JAK2 Z-Lyte Biochemical Assay of the Compounds of the Present Disclosure
The JAK2 Z-Lyte biochemical assay was performed according to manufacturer's instructions (Life Technologies).

JAK2, sequence (O60674 whole entry): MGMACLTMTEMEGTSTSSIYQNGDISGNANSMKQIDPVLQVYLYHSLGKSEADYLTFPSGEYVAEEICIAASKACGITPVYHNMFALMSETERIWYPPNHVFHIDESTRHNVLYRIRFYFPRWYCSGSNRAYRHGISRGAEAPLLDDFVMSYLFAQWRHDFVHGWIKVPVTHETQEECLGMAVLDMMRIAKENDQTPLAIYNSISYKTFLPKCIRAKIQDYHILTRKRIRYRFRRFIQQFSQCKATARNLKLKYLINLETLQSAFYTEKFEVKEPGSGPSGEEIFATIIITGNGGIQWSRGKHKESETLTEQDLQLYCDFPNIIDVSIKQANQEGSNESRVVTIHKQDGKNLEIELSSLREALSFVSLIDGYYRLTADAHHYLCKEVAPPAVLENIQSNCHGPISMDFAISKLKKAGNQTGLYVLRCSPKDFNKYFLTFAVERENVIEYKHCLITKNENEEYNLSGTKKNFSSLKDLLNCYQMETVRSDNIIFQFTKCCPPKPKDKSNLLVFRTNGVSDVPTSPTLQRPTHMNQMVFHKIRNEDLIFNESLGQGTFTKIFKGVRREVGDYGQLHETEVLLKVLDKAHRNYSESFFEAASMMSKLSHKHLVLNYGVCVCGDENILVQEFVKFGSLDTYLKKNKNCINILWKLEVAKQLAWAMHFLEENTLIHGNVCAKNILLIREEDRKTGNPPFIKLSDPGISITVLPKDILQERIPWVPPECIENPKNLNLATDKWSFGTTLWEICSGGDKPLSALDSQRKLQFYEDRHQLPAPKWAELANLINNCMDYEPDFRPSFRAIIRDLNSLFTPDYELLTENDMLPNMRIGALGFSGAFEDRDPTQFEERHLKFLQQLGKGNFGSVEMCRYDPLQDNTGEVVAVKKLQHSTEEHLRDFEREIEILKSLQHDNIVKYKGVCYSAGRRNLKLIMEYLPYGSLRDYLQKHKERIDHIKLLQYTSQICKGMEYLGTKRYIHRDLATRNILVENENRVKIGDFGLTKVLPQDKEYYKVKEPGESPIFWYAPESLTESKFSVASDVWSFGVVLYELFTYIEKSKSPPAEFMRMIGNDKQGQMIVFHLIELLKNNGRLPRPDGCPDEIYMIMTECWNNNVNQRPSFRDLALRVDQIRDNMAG

IC50	Structure (SMILES)
1.34 µM	CCN1CCN(Cc2ccc(Nc3nc4ccc(Oc5ccnc(NC(C)=O)c5)nc4n3C)cc2C(F)(F)F)CC1 [Compound I-15, N-(4-((2-((4-((4-ethylpiperazin-1-yl)methyl)-3-(trifluoromethyl)phenyl)amino)-3-methyl-3H-imidazo[4,5-b]pyridin-5-yl)oxy)pyridin-2-yl)acetamide]
> 10 µM	COC(=O)c1cc(Oc2ccc3nc(Nc4ccc(F)cc4F)n(C)c3n2)ccn1 [Compound I-13, Methyl 4-((2-((2,4-difluorophenyl)amino)-3-methyl-3H-imidazo[4,5-b]pyridin-5-yl)oxy) picolinate]
6 µM	CCN1CCN(Cc2ccc(Nc3nc4ccc(Oc5ccnc(NC(=O)C6CCOCC6)c5)cc4n3C)cc2C(F)(F)F)CC1 [Compound I-18, N-(4-(2-(4-((4-ethylpiperazin-1-yl)methyl)-3-(trifluoromethyl)phenylamino)-3-methyl-3H-benzo[d]imidazol-5-yloxy)pyridin-2-yl)-tetrahydro-2H-pyran-4-carboxamide]
0.0925 µM	CC(=O)Nc1cc(Oc2ccc3c(c2)nc(Nc2ccc(F)cc2F)n3C)ccn1 [Compound I-8, N-(4-(2-(2,4-difluorophenylamino)-1-methyl-1H-benzo[d]imidazol-5-yloxy)pyridin-2-yl)acetamide]
4.93 µM	CCN1CCN(Cc2ccc(Nc3nc4ccc(Oc5ccnc(NC(=O)CCN(C)C)c5)cc4n3C)cc2C(F)(F)F)CC1 [Compound I-21, 3-(dimethylamino)-N-(4-(2-(4-((4-ethylpiperazin-1-yl)methyl)-3-(trifluoromethyl)phenylamino)-3-methyl-3H-benzo[d]imidazol-5-yloxy)pyridin-2-yl)propanamide]
0.449 µM	CC(=O)Nc1cc(Oc2ccc3nc(Nc4ccc(F)cc4F)[nH]c3c2C)ccn1 [Compound I-4, N-(4-(2-(2,4-difluorophenylamino)-4-methyl-1H-benzo[d]imidazol-5-yloxy)pyridin-2-yl)acetamide]
> 10 µM	CCN1CCN(Cc2ccc(Nc3nc4nc(Oc5ccnc(NC(C)=O)c5)ncc4[nH]3)cc2C(F)(F)F)CC1 [Compound I-16, N-(4-((8-((4-((4-ethylpiperazin-1-yl)methyl)-3-(trifluoromethyl)phenyl)amino)-7H-purin-2-yl)oxy)pyridin-2-yl)acetamide]
8.03 µM	CCN1CCN(Cc2ccc(Nc3nc4ccc(Oc5ccnc(NC(=O)C6CCN(C)CC6)c5)cc4n3C)cc2C(F)(F)F)CC1 [Compound I-19, N-(4-(2-(4-((4-ethylpiperazin-1-yl)methyl)-3-(trifluoromethyl)phenylamino)-3-methyl-3H-benzo[d]imidazol-5-yloxy)pyridin-2-yl)-1-methylpiperidine-4-carboxamide]
1.05 µM	CCN1CCN(Cc2ccc(Nc3nc4ccc(Oc5ccnc(NC(C)=O)c5)c(C)c4[nH]3)cc2C(F)(F)F)CC1 [Compound I-5, N-(4-(2-(4-((4-ethylpiperazin-1-yl)methyl)-3-(trifluoromethyl)phenylamino)-4-methyl-1H-benzo[d]imidazol-5-yloxy)pyridin-2-yl)acetamide]
0.957 µM	CCN1CCN(Cc2cc(Nc3nc4ccc(Oc5ccnc(NC(C)=O)c5)cc4n3C)cc(C(F)(F)F)c2)CC1 [Compound I-3, N-(4-(2-(3-((4-ethylpiperazin-1-yl)methyl)-5-(trifluoromethyl)phenylamino)-1-methyl-1H-benzo[d]imidazol-6-yloxy)pyridin-2-yl)acetamide]
> 10 µM	CC(=O)Nc1cc(Oc2ncc3[nH]c(Nc4ccc(F)cc4F)nc3n2)ccn1 [Compound I-10, N-(4-(8-(2,4-difluorophenylamino)-7H-purin-2-yloxy)pyridin-2-yl)acetamide]
> 10 µM	Cn1c(Nc2ccc(F)cc2F)nc2ccc(Oc3ccnc(C(=O)O)c3)nc21 [Compound I-14, 4-((2-((2,4-difluorophenyl)amino)-3-methyl-3H-imidazo[4,5-b]pyridin-5-yl)oxy)picolinic acid]
8.53 µM	CCN1CCN(Cc2ccc(Nc3nc4cc(Oc5ccnc(NC(C)=O)c5)ccc4n3C)cc2C(F)(F)F)CC1 [Compound I-7, N-(4-(2-(4-((4-ethylpiperazin-1-yl)methyl)-3-(trifluoromethyl)phenylamino)-1-methyl-1H-benzo[d]imidazol-5-yloxy)pyridin-2-yl)acetamide]
3.08 µM	CC(=O)Nc1cc(Oc2ccc3nc(Nc4ccc(F)cc4F)n(C)c3c2)ccn1 [Compound I-1, N-(4-(2-(2,4-difluorophenylamino)-1-methyl-1H-benzo[d]imidazol-6-yloxy)pyridin-2-yl)acetamide]
1.95 µM	CCN1CCN(Cc2ccc(Nc3nc4ccc(Oc5ccnc(N)c5)cc4n3C)cc2C(F)(F)F)CC1 [Compound I-20, 6-(2-aminopyridin-4-yloxy)-N-(4-((4-ethylpiperazin-1-yl)methyl)-3-(trifluoromethyl)phenyl)-1-methyl-1H-benzo[d]imidazol-2-amine]
> 10 µM	CC(=O)Nc1cc(Oc2ccc3nc(Nc4ccc(F)cc4F)n(C)c3n2)ccn1 [Compound I-12, N-(4-(2-(2,4-difluorophenylamino)-3-methyl-3H-imidazo[4,5-b]pyridin-5-yloxy)pyridin-2-yl)acetamide]
> 10 µM	CC(=O)Nc1cc(Oc2ccc3nc(Nc4ccc(F)cc4F)nn3c2)ccn1 [Compound I-11, N-(4-(2-(2,4-difluorophenylamino)-[1,2,4]triazolo[1,5-a]pyridin-6-yloxy)pyridin-2-yl)acetamide]
> 10 µM	Cn1c(Nc2ccc(F)cc2F)nc2ccc(Oc3ccc(O)nc3)cc21 [Compound I-23]
> 10 µM	CCN1CCN(Cc2ccc(Nc3nc4ccc(Oc5ccc(O)nc5)cc4n3C)cc2C(F)(F)F)CC1 [Compound I-22, 5-((2-((4-((4-ethylpiperazin-1-yl)methyl)-3-(trifluoromethyl)phenyl)amino)-1-methyl-1H-benzo[d]imidazol-6-yl)oxy)pyridin-2(1H)-one]
2.14 µM	CCN1CCN(Cc2cc(Nc3nc4cc(Oc5ccnc(NC(C)=O)c5)ccc4n3C)cc(C(F)(F)F)c2)CC1 [Compound I-9, N-(4-(2-(3-((4-ethylpiperazin-1-yl)methyl)-5-(trifluoromethyl)phenylamino)-1-methyl-1H-benzo[d]imidazol-5-yloxy)pyridin-2-yl)acetamide]

Tested on: cell lines or patient-derived xenografts from patients with CRLF2-rearranged B-ALL
Experiment: not given
Conditions: cited from earlier work

Structure (SMILES)	IC50
N#CC[C@H](C1CCCC1)n1cc(-c2ncnc3[nH]ccc23)cn1 [Ruxolitinib]	> 20 µM
